ChEMBL document CHEMBL5233233, “Histone deacetylase 3 (HDAC3) inhibitors as anticancer agents: A review” (Eur J Med Chem, 2020)
Each block holds one compound with its values, some of them ahead of it.

How the values were obtained:
Histone deacetylase = test: Inhibition of human HDAC using human HeLa cell nuclear extract measured after 60 mins by fluorescence assay; format: subcellular, Nucleus
Histone deacetylase 3 [1] = target: T1, Histone deacetylase 3 (Homo sapiens, UniProt O15379); test: Inhibition of human HDAC3 using fluorogenic as substrate measured after 30 mins by fluorescence based analysis
Histone deacetylase 1 [2] = target: T2, Histone deacetylase 1 (Homo sapiens, UniProt Q13547); test: Inhibition of human HDAC1 using fluorogenic as substrate measured after 30 mins by fluorescence based analysis
Histone deacetylase 1 [3] = target: T2, Histone deacetylase 1; test: Inhibition of human HDAC1 using human HeLa cell nuclear extract at 1 uM measured after 60 mins by fluorescence assay; format: subcellular, Nucleus
Histone deacetylase 3 [4] = target: T1, Histone deacetylase 3; test: Inhibition of human HDAC3 using human HeLa cell nuclear extract at 1 uM measured after 60 mins by fluorescence assay; format: subcellular, Nucleus
Histone deacetylase 2 [5] = target: T3, Histone deacetylase 2 (Homo sapiens, UniProt Q92769); test: Inhibition of human HDAC2 using human HeLa cell nuclear extract at 1 uM measured after 60 mins by fluorescence assay; format: subcellular, Nucleus
Histone deacetylase 3 [6] = target: T1, Histone deacetylase 3; test: Inhibition of HDAC3 (unknown origin)
Histone deacetylase 8 [7] = target: T4, Histone deacetylase 8 (Homo sapiens, UniProt Q9BY41); test: Inhibition of human recombinant HDAC8 using (FAM)-labeled acetylated peptide substrate at 1 uM incubated for 17 hrs by fluorescence based analysis
T4 sequence (Q9BY41 whole entry): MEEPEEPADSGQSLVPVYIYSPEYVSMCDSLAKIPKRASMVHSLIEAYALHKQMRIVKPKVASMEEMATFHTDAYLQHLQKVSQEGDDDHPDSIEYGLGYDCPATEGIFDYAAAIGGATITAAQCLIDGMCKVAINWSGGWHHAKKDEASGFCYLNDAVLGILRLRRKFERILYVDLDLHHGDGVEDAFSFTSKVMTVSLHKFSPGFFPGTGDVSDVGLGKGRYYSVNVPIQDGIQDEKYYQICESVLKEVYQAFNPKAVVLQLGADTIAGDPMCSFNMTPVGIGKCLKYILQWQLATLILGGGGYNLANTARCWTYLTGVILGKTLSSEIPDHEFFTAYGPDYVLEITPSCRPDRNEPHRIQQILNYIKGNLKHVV

[8] = target: T5, Protein deacetylase HDAC6 (Homo sapiens, UniProt Q9UBN7); test: Inhibition of human recombinant HDAC6 using (FAM)-labeled acetylated peptide substrate at 1 uM incubated for 17 hrs by fluorescence based analysis
T5 sequence (Q9UBN7 whole entry): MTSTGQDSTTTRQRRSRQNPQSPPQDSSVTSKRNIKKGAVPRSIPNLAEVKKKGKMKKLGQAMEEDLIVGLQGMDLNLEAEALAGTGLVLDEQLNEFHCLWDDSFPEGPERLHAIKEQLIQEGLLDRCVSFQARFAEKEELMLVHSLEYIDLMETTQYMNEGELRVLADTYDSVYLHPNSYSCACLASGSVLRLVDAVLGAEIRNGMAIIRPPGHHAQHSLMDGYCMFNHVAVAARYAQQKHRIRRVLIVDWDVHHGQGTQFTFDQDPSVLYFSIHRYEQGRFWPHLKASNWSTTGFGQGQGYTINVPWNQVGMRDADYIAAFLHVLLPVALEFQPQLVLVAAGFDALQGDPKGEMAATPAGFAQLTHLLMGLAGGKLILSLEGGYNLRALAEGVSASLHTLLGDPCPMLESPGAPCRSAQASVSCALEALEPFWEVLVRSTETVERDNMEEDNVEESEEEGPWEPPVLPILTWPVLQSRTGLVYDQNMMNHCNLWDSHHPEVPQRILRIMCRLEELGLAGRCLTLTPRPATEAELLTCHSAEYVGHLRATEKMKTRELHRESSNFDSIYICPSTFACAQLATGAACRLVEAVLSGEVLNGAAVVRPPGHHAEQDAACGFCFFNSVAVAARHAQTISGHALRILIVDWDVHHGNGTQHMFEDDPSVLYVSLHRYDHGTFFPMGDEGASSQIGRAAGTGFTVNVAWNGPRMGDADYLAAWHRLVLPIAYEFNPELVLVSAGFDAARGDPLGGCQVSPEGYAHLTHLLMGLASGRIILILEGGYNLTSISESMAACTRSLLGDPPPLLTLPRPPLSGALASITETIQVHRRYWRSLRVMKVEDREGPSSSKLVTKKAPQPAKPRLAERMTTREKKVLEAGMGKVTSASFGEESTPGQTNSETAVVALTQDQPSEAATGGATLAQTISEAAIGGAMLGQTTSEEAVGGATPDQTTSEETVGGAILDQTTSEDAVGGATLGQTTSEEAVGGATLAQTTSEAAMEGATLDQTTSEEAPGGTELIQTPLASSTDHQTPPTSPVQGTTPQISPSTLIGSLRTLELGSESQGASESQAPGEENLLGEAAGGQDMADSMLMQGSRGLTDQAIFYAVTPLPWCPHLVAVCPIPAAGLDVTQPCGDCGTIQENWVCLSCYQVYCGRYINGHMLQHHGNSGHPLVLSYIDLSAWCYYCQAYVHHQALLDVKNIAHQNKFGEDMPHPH

Histone deacetylase 1 [9] = target: T2, Histone deacetylase 1; test: Inhibition of human recombinant HDAC1 using (FAM)-labeled acetylated peptide substrate at 1 uM incubated for 17 hrs by fluorescence based analysis
Histone deacetylase 2 [10] = target: T3, Histone deacetylase 2; test: Inhibition of human recombinant HDAC2 using (FAM)-labeled acetylated peptide substrate at 1 uM incubated for 17 hrs by fluorescence based analysis
Histone deacetylase 8 [11] = target: T4, Histone deacetylase 8; test: Inhibition of human recombinant HDAC8 expressed in Escherichia coli BL21 (DE3) cells by using Boc-L-Lys(Ac)-AMC as substrate measured after 24 hrs by fluorescence based analysis
Histone deacetylase 2 [12] = target: T3, Histone deacetylase 2; test: Inhibition of human recombinant HDAC2 expressed in baculovirus by using Boc-L-Lys(Ac)-AMC as substrate measured after 24 hrs by fluorescence based analysis
Histone deacetylase 3 [13] = target: T1, Histone deacetylase 3; test: Inhibition of human recombinant HDAC3 expressed in baculovirus by using Boc-L-Lys(Ac)-AMC as substrate measured after 24 hrs by fluorescence based analysis
Histone deacetylase 1 [14] = target: T2, Histone deacetylase 1; test: Inhibition of human recombinant HDAC1 expressed in baculovirus by using Boc-L-Lys(Ac)-AMC as substrate measured after 24 hrs by fluorescence based analysis
Histone deacetylase 2 [15] = target: T3, Histone deacetylase 2; test: Inhibition of HDAC2 (unknown origin)
Histone deacetylase 1 [16] = target: T2, Histone deacetylase 1; test: Inhibition of HDAC1 (unknown origin)
Histone deacetylase 8 [17] = target: T4, Histone deacetylase 8; test: Inhibition of HDAC8 (unknown origin)
Histone deacetylase 2 [18] = target: T3, Histone deacetylase 2; test: Inhibition of HDAC2 (unknown origin) using acetylated 7-amino-4-methylcoumarin (AMC) as peptide substrate measured after 20 mins by fluorescence based analysis
Histone deacetylase 3 [19] = target: T1, Histone deacetylase 3; test: Inhibition of HDAC3 (unknown origin) using acetylated 7-amino-4-methylcoumarin (AMC) as peptide substrate measured after 20 mins by fluorescence based analysis
Histone deacetylase 1 [20] = target: T2, Histone deacetylase 1; test: Inhibition of HDAC1 (unknown origin) using acetylated 7-amino-4-methylcoumarin (AMC) as peptide substrate measured after 20 mins by fluorescence based analysis
Histone deacetylase 1 [21] = target: T2, Histone deacetylase 1; test: Inhibition of HDAC1 (unknown origin) using Boc-Lys (Ac)-AMC as substrate measured after 30 mins by fluorescence based analysis

T2 sequence (Q13547 whole entry): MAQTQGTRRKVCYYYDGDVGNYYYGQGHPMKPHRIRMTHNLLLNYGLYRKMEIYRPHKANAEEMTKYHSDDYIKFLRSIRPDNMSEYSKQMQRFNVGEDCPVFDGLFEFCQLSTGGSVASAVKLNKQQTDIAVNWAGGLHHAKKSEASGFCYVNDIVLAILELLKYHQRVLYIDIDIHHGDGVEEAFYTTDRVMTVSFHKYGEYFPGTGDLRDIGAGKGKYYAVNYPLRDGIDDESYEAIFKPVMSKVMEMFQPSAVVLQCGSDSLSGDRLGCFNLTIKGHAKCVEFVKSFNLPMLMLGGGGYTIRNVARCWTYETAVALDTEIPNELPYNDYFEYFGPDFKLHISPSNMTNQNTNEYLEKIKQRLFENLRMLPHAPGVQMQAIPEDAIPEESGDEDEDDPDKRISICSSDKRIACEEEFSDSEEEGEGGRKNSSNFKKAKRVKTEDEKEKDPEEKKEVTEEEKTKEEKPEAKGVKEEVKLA
T1 sequence (O15379 whole entry): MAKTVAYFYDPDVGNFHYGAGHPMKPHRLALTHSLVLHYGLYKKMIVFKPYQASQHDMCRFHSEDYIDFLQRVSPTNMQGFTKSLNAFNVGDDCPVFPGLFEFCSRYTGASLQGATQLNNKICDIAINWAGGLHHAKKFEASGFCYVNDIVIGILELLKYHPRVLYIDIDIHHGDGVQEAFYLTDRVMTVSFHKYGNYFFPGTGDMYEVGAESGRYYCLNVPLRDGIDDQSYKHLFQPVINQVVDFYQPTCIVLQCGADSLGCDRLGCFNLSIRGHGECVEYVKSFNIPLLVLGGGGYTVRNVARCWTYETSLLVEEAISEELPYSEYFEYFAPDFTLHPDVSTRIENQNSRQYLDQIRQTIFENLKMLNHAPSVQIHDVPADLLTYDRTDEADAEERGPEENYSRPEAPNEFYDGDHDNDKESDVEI
T3 sequence (Q92769 whole entry): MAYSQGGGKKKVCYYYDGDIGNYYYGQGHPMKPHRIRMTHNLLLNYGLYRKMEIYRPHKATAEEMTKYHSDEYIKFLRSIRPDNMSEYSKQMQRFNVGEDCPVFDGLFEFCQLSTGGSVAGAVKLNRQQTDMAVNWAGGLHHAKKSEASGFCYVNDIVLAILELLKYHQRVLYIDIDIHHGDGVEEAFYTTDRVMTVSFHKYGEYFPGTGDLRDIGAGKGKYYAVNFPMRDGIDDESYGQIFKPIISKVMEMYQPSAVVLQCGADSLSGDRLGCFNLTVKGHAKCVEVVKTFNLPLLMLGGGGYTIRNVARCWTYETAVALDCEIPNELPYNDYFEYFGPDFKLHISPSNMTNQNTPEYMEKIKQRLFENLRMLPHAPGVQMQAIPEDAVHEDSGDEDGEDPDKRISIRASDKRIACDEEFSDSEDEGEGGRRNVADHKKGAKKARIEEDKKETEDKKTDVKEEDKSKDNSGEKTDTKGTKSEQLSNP

- IC50 (Histone deacetylase): 9.7 nM
- IC50 (Histone deacetylase 3 [1]): 24.4 nM
- IC50 (Histone deacetylase 1 [2]): 24.7 nM
SMILES: CN(C)c1cccc2c(S(=O)(=O)N[C@H](C(=O)Nc3ccc(C(=O)NO)cc3)c3ccccc3)cccc12

- IC50 (Histone deacetylase 1 [3]): 259 nM
- IC50 (Histone deacetylase 3 [4]): 17 nM
- IC50 (Histone deacetylase 2 [5]): 946 nM
SMILES: Cc1noc(C)c1-c1ccc2c(c1)c(CCc1ccc(F)cc1)cn2CCCCCC(=O)NO

- IC50 (Histone deacetylase 3 [6]): 0.6 nM
SMILES: CCC(=O)CCCCC[C@H](NC(=O)C(C)(C)N(C)C)c1ncc(-c2cc3ccccc3nc2OC)o1

- IC50 (Histone deacetylase 3 [6]): 7 nM
SMILES: CCC(=O)CCCCC[C@H](NC(=O)N1CCOCC1)c1ncc(-c2cc3ccccc3nc2OC)o1

- IC50 (Histone deacetylase 8 [7]): > 30000 nM
- IC50 [8]: > 30000 nM
- IC50 (Histone deacetylase 1 [9]): > 30000 nM
- IC50 (Histone deacetylase 2 [10]): > 30000 nM
SMILES: Nc1ccccc1NC(=O)CCCCCCC(=O)Nc1cccc(-c2cn(-c3ccccc3)nn2)c1

- IC50 (Histone deacetylase 8 [11]): 320 nM
- IC50 (Histone deacetylase 2 [12]): 320 nM
- IC50 (Histone deacetylase 3 [13]): 68 nM
- IC50 (Histone deacetylase 1 [14]): 39 nM
SMILES: O=C(CCCCCCNCc1ccc2ccccc2c1)NO

- IC50 (Histone deacetylase 2 [15]): > 19 nM
- IC50 (Histone deacetylase 1 [16]): > 100000 nM
SMILES: Nc1ccccc1NC(=O)c1ccc(-c2cn(CCc3ccsc3)nn2)cc1

- IC50 (Histone deacetylase 8 [11]): 4100 nM
- IC50 (Histone deacetylase 2 [12]): 3000 nM
- IC50 (Histone deacetylase 3 [13]): 1100 nM
- IC50 (Histone deacetylase 1 [14]): 840 nM
SMILES: O=C(CCCCCCN(Cc1ccc(-c2ccccc2)s1)Cc1ccc(-c2ccccc2)s1)NO

- IC50 (Histone deacetylase 2 [15]): 85 nM
- IC50 (Histone deacetylase 3 [6]): 12 nM
- IC50 (Histone deacetylase 8 [17]): 4100 nM
- IC50 (Histone deacetylase 1 [16]): 930 nM
SMILES: Nc1ccccc1NC(=O)c1ccc(CNc2nc(-c3ccccc3)cs2)cc1

- IC50 (Histone deacetylase 1 [3]): 431 nM
- IC50 (Histone deacetylase 3 [4]): 18 nM
- IC50 (Histone deacetylase 2 [5]): 438 nM
SMILES: Cc1ccc(Cc2cn(CCCCCCC(=O)NO)c3ccc(-c4c(C)noc4C)cc23)cc1

- IC50 (Histone deacetylase): 15.6 nM
SMILES: O=C(NO)c1ccc(NC(=O)[C@@H](NS(=O)(=O)c2cccc3ccccc23)c2ccccc2)cc1

- IC50 (Histone deacetylase 8 [11]): 5400 nM
- IC50 (Histone deacetylase 2 [12]): 4200 nM
- IC50 (Histone deacetylase 3 [13]): 950 nM
- IC50 (Histone deacetylase 1 [14]): 1100 nM
SMILES: O=C(CCCCCCN(Cc1ccc2ccccc2c1)Cc1ccc2ccccc2c1)NO

- IC50 (Histone deacetylase 1 [3]): 240 nM
- IC50 (Histone deacetylase 3 [4]): 28 nM
- IC50 (Histone deacetylase 2 [5]): 139 nM
SMILES: Cc1noc(C)c1-c1ccc2c(c1)c(CCc1ccccc1)cn2CCCCCCC(=O)NO

- IC50 (Histone deacetylase 2 [18]): > 50000 nM
- IC50 (Histone deacetylase 3 [19]): > 50000 nM
- IC50 (Histone deacetylase 1 [20]): > 50000 nM
SMILES: CCCCNNC(=O)c1ccccc1

- IC50 (Histone deacetylase 1 [3]): 179 nM
- IC50 (Histone deacetylase 3 [4]): 23 nM
- IC50 (Histone deacetylase 2 [5]): 118 nM
SMILES: Cc1noc(C)c1-c1ccc2c(c1)c(Cc1ccccc1)cn2CCCCCCC(=O)NO

- IC50 (Histone deacetylase 2 [15]): > 100 nM
SMILES: Nc1ccccc1NC(=O)c1ccc(-c2cn(CCc3cccc([N+](=O)[O-])c3)nn2)s1

- IC50 (Histone deacetylase 1 [3]): 31 nM
- IC50 (Histone deacetylase 3 [4]): 13 nM
- IC50 (Histone deacetylase 2 [5]): 79 nM
SMILES: Cc1noc(C)c1-c1ccc2c(c1)c(Cc1cccc(C(F)(F)F)c1)cn2CCCCCCC(=O)NO

- IC50 (Histone deacetylase 1 [21]): 61 nM
SMILES: COC(=O)/C=C/c1ccc(OCCCCNc2cc3c([nH]c4ccccc43)c(-c3ccc(OC)cc3)n2)c(OC)c1

- IC50 (Histone deacetylase 1 [3]): 220 nM
- IC50 (Histone deacetylase 3 [4]): 50 nM
- IC50 (Histone deacetylase 2 [5]): > 1000 nM
SMILES: Cc1ccccc1Cc1cn(CCCCCCC(=O)NO)c2ccc(-c3c(C)noc3C)cc12
